Data published in patent US20230391841A1, “MACROCYCLIC PEPTIDES” (Herantis Pharma OYJ, priority 2019, published 2023).
Bridge positions count the residues as written; N and C are the ends. Peptide text beside a SMILES is read from it.

Legend:
[1] = system: human hepatocytes; assay: In vitro metabolic stability in human hepatocytes; assay type: in vitro ADME; details: 1 μM, 37° C., up to 60 min
Method: The linear or macrocyclic compounds 1-8, 11-14 and 23-26 (SEQ ID NOs: 1-8, 11-14 and 23-26) were incubated in concentration 1 μM with pooled cryopreserved human hepatocytes (mixed gender; 400 pl, 1.0 million viable cells/ml) for different time points (0, 20, 40 or 60 min) at 37° C. The cell density and viability were determined by trypan blue is exclusion method. The incubation was terminated by acetonitrile. The collected samples were centrifuged for 20 min at 2272×g and analyzed. The samples were analyzed by UPLC/PDA with high resolution mass spectrometry (QE-Orbitrap-MS on DDI mode) to monitor disappearance of the compound. Verapramil 1 μM was used as a disappearance rate control. The analytical method was optimized by using the parent compounds for optimum chromatographic properties (peak shape and retention) and mass spectrometric ionization. The Ion chromatograms were extracted from the total ion chromatograms using calculated monoisotopic accurate masses with 5 mDa window. Disappearance was based on LC/MS peak areas, marking 0 min as 100%. The first-order rate constants k (min-1) of the metabolism were obtained from the slope of time versus logarithm (% of remaining compound) plot using Excel software. The in vitro half-life (t1/2) of study compound is defined as: t1/2In2/k. Calculated half-life is based on compound disappearance in human liver hepatocytes.

[2] = system: 3D in vitro model of blood-brain barrier; assay: Permeation in a 3D in vitro model of blood-brain barrier; assay type: in vitro ADME, human endothelial cells, rat astrocytes and cortical neurons; details: 500 nM, 2 h
Method: Due to the interest of developing CDNF- and MANF-derived peptides for treatment of CNS diseases with peripheral route of administration, and the fact that macrocyclization can improve cell-penetration and distribution properties of peptides, the ability of the compounds to pass the blood-brain barrier was tested in an established in vitro model of the blood-brain barrier. For this purpose, macrocyclic and linear compounds were incubated at 500 nM for 2 h in a two-compartment in vitro blood-brain barrier model (n=4) followed by sample collection is and LC-MS/MS analysis.
Primary culture of astrocytes. Rat astrocytes were prepared from a E15 embryos. Briefly, pregnant female rats (Wistar, Janvier Labs) of 15 days of gestation were deeply anesthetized in a (CO2 chamber) and then killed by cervical dislocation. Fetuses were collected and immediately placed in ice-cold L15 Leibovitz medium with a 2% penicillin (10,000 U/mL) and streptomycin (10 mg/mL) solution (PS) and 1% bovine serum albumin (BSA). Full brains were treated for 20 min at 37° C. with a trypsin- EDTA solution at a final concentration of 0.05% trypsin and 0.02% EDTA. Dissociated cells were cultured in DMEM 10% fetal calf serum. Purified astrocytes were used at passage 4 (P4).
Culture of human endothelial cells. A vial of HBMEC (Primary Human Brain Microvascular Endothelial Cells, ACBRI 376) was used at a specific passage 8 (P8).
Primary culture of cortical neurons. Rat cortical neurons were cultured as described by Callizot et al., 2013 with modification. Briefly, pregnant female rats (Wistar, Janvier Labs) of […] were deeply anesthetized in a CO2 chamber and then killed by cervical io dislocation. Fetuses were collected and immediately placed in ice-cold L15 Leibovitz medium with a 2% penicillin (10,000 U/mL) and streptomycin (10 mg/mL) solution (PS) and 1% bovine serum albumin (BSA). Cortices were treated for 20 min at 37° C. with a trypsin-EDTA solution at a final concentration of 0.05% trypsin and 0.02% EDTA. The dissociation was stopped by addition of Dulbecco's modified Eagle's medium (DMEM) with 4.5 g/L of glucose, containing is DNAse I grade II (final concentration 0.5 mg/m L) and 10% fetal calf serum (FCS). Cells were mechanically dissociated by three forced passages through the tip of a 10-m1 pipette. Cells were then centrifuged at 515×g for 10 min at 4° C. The pellet resuspended in a defined culture medium consisting of Neurobasal medium with a 2% solution of B27 supplement, 2 mmol/L of L-glutamine, 2% of PS solution, 10 ng/mL of brain-derived neurotrophic factor (BDNF). Viable cells were counted in a Neubauer cytometer, using the trypan blue exclusion test. The cortical neurons were seeded in the bottom of well pre-coated with poly-L-lysine at a density of 255,000 per well in 24-well plate with insert and cultured at 37° C. in an air (95%)-CO2 (5%) incubator. The culture medium was changed every other day.
Co-Culture of endothelial cells, astrocytes and primary cortical neurons. The procedure was performed as previously published (Xue et al., 2013 with modifications, Callizot et al., 2017). Briefly, on day 0, purified astrocytes (P4) were rapidly thawed in a water bath at 37° C. The cells were immediately put in DMEM containing 10% of FCS. Cell suspension was centrifuged at 515×g for 5 min at 4° C. and the pellets were suspended in DMEM F12 containing 10% of FCS. Cells were seeded in the outer side of the insert membrane (PET, 1 μm) at the density of 45,000 cells per insert and cultured at 37° C. in an air (95%)-CO2 (5%) incubator. Thirty-six (36) hours after the astrocytes seeding, HBMEC (P8) were rapidly thawed in a water bath at 37° C. and immediately put in DMEM containing 10% of FCS. Cell suspension was centrifuged at 515×g for 5 min at 4° C. and the pellets were suspended in EGM-2 bullet kit containing 5% of FCS, 1% of PS solution, 1.4 μM of Hydrocortisone, 5 μg/mL of acid ascorbic, 1% of lipid mixture, 10 mM of HEPES, 1 ng/mL of bFGF. […]

[3] = In vivo pharmacokinetics after intravenous administration to rats; parameters: species or system male Sprague-Dawley rats; details: rat, 5 mg/kg intravenous bolus, male Sprague-Dawley rats
Method: The clearance and elimination of peptides can be mediated by multiple processes in vivo, including metabolism and renal elimination.
Test compounds were intravenously (i.v.) administered to male Spraque-Dawley rats (about is six weeks old, n=3 per compound) at 5 mg/kg. Blood samples were collected from jugular vein through implanted in-dwelling catheters (250 pl blood) into labelled polypropylene tubes containing anticoagulant (heparin) at 2 min, 5 min,15 min, 30 min, 1 h, 2 h and 4 h after compound administration and held on wet ice for a maximum of 30 minutes. The blood samples were centrifuged for plasma separation (4 °C, 21100 G, 5 min). Tolbutamide 500ng/ml with 10% TFA in acetonitrile or in MeCN was used as an internal standard solution.
The standard samples were prepared into rat plasma by spiking the matrix into concentrations 2-10 000 ng/ml of the analyte, respectively, and otherwise treated as the samples. To 50 pl aliquots of sample plasma was added 200 pl of internal standard. Samples were mixed (150 rpm, 15 min) and centrifugated (3000 rpm, 15min). The analytical method was optimized for reaction monitoring chromatographic (peak shape & retention) shifts and mass spectrometric properties (ionization efficiency, MS/MS detection). Supernatants were analyzed by UHPLC-TOF mass spectrometry using electrospray ionization.

Compound	stability in human hepatocytes as compared to linear counterpart [1]	ability to pass through the in vitro blood-brain barrier as compared to linear counterpart [2]	AUC(0-inf) ([3]; in vivo) [ng·h/mL]	MRT ([3]; in vivo) [min]	Vd ([3]; in vivo) [L/kg]	half-life ([3]; in vivo) [min]	clearance ([3]; plasma, read-out: CI) [mL/min/kg]
C[C@@H]1NC(=O)[C@@H]2CSSC[C@H](NC(=O)[C@H](CCC(=O)O)NC(=O)[C@H](CCC(=O)O)NC(=O)CNC(=O)[C@H](Cc3c[nH]c4ccccc34)NC(=O)[C@H]([C@@H](C)O)NC(=O)[C@H](CCCCN)NC(=O)[C@H](CCC(=O)O)NC1=O)C(=O)N[C@@H](CCCNC(=N)N)C(=O)N[C@@H](C)C(=O)N2 [Compound 12, WGEECRACAEKT] (cyclo(ACAEKTWGEECR); disulfide 2-11)	significantly improved stability	improved ability to pass	–	–	–	–	–
CC[C@H](C)[C@@H]1NC(=O)[C@H](CCC(N)=O)NC(=O)[C@H](CCCCN)NC(=O)[C@H](CC(C)C)NC(=O)[C@H](CCC(=O)O)NC(=O)[C@H](C)NC(=O)[C@H](C(C)C)NC(=O)[C@H](CCCNC(=N)N)NC(=O)[C@H](CCSC)NC(=O)[C@H](CCCCN)NC(=O)[C@H](CCCNC(=N)N)NC(=O)[C@H](CC(C)C)NC(=O)[C@H](CC(=O)O)NC(=O)[C@H](C(C)C)NC(=O)[C@H](CCC(=O)O)NC(=O)[C@H](C)NC(=O)[C@@H]2CSSC[C@H](NC(=O)[C@H](CCC(=O)O)NC(=O)[C@H](CCC(=O)O)NC(=O)CNC(=O)[C@H](Cc3c[nH]c4ccccc34)NC(=O)[C@H](CO)NC(=O)[C@H](Cc3c[nH]cn3)NC(=O)[C@H](CC(C)C)NC1=O)C(=O)N[C@@H](CCCNC(=N)N)C(=O)N[C@@H](C)C(=O)N2 [Compound 2] (cyclo(ACAEVDLRKMRVAELKQILHSWGEECR); disulfide 2-26)	significantly improved stability	improved ability to pass	4440	1.01	0.02	3.78	20.6
CC[C@H](C)[C@@H]1NC(=O)[C@H](CCCCN)NC(=O)[C@H](CCCCN)NC(=O)[C@H](CC(C)C)NC(=O)[C@H](CCC(=O)O)NC(=O)[C@H](CCCCN)NC(=O)[C@H](C(C)C)NC(=O)[C@H](CCCNC(=N)N)NC(=O)[C@H](CC(C)C)NC(=O)[C@H](CCCCN)NC(=O)[C@H](CCC(=O)O)NC(=O)[C@H](C)NC(=O)[C@@H]2CSSC[C@H](NC(=O)[C@H]([C@@H](C)O)NC(=O)[C@H](CCC(=O)O)NC(=O)CNC(=O)[C@H](Cc3c[nH]c4ccccc34)NC(=O)[C@H](CC(=O)O)NC(=O)[C@H](CC(=O)O)NC(=O)[C@H](CC(C)C)NC1=O)C(=O)N[C@@H](CCCCN)C(=O)NCC(=O)N2 [Compound 8] (cyclo(AEKLRVKELKKILDDWGETCKGC); disulfide 20-23)	–	improved ability to pass	–	–	–	–	–
C[C@@H]1NC(=O)[C@@H]2CSSC[C@H](NC(=O)[C@H]([C@@H](C)O)NC(=O)[C@H](CCC(=O)O)NC(=O)CNC(=O)[C@H](Cc3c[nH]c4ccccc34)NC(=O)[C@H](CO)NC(=O)[C@H](CCCCN)NC(=O)[C@H](CCC(=O)O)NC1=O)C(=O)N[C@@H](CCCCN)C(=O)NCC(=O)NCC(=O)N2 [Compound 26, WGETCKGGCAEKS] (cyclo(AEKSWGETCKGGC); disulfide 9-13)	significantly improved stability	improved ability to pass	–	–	–	–	–
C[C@@H]1NC(=O)CNC(=O)[C@H](CCCNC(=N)N)NC(=O)[C@@H]2CSSC[C@H](NC1=O)C(=O)N[C@@H](C)C(=O)N[C@@H](CCC(=O)O)C(=O)N[C@@H](CCCCN)C(=O)N[C@@H]([C@@H](C)O)C(=O)N[C@@H](Cc1c[nH]c3ccccc13)C(=O)NCC(=O)N[C@@H](CCC(=O)O)C(=O)N[C@@H](CCC(=O)O)C(=O)N2 [Compound 24, WGEECRGACAEKT] (cyclo(ACAEKTWGEECRG); disulfide 2-11)	significantly improved stability	improved ability to pass	–	–	–	–	–
CC[C@H](C)[C@@H]1NC(=O)[C@H](CCC(N)=O)NC(=O)[C@H](CCCCN)NC(=O)[C@H](CC(C)C)NC(=O)[C@H](CCC(=O)O)NC(=O)[C@H](C)NC(=O)[C@H](C(C)C)NC(=O)[C@H](CCCNC(=N)N)NC(=O)[C@H](CCSC)NC(=O)[C@H](CCCCN)NC(=O)[C@H](CCC(=O)O)NC(=O)[C@H](C)NC(=O)[C@@H]2CSSC[C@H](NC(=O)[C@H](CCC(=O)O)NC(=O)[C@H](CCC(=O)O)NC(=O)CNC(=O)[C@H](Cc3c[nH]c4ccccc34)NC(=O)[C@H](CO)NC(=O)[C@H](Cc3c[nH]cn3)NC(=O)[C@H](CC(C)C)NC1=O)C(=O)N[C@@H](CCCNC(=N)N)C(=O)N[C@@H](C)C(=O)N2 [Compound 6] (cyclo(ACAEKMRVAELKQILHSWGEECR); disulfide 2-22)	significantly improved stability	improved ability to pass	–	–	–	–	–
